From paper PMC8018465, “Antimicrobial activities of a small molecule compound II-6s against oral streptococci” (Journal of Oral Microbiology, 2021)
Values after ≈ are worked out from the molar mass of the structure shown. Read-outs that look alike come from different tables or passages of the source.

Columns and labels:
[1] = test system: S. mutans; assay: Bacterial susceptibility assay (microdilution, planktonic); type: cell-based, Streptococcus mutans UA159; details: Streptococcus mutans
Experimental: (§1) Streptococcus mutans UA159, Streptococcus gordonii DL1 and Streptococcus sanguinis ATCC10556 were obtained from the State Key Laboratory of Oral Diseases (Sichuan University, Chengdu, China). All strains were routinely cultured in brain heart infusion broth (BHI; Difco, Sparks, MD) under anaerobic conditions (5% CO2) at 37°C. For biofilm formation, bacteria were cultured in BHI broth supplied with 1% sucrose (designated BHIS).
(§2) The minimum inhibitory concentration (MIC) and minimum bactericidal concentration (MBC) of II-6s against S. mutans, S. gordonii, and S. sanguinis were measured by a microdilution method in BHI as described previously. The bacterial inoculum for the experiment was adjusted to 1 × 10^7 colony-forming units (CFU)/ml for S. mutans, S. gordonii, and S. sanguinis based on the optical density at 600 nm (OD600) versus a CFU/ml graph of each bacterium. Bacterial suspension was added to 96-well microtiter plates which were supplemented with serially diluted concentrations of II-6s ranging from 0.98 to 500 μg/ml. Each plate also included CHX ranging from 0.98 to 500 μg/ml as a positive control, test bacteria and BHI broth as a negative control, BHI broth containing equivalent DMSO (0.5% to 0.001%, ν/ν) as a solvent control and a blank control. […] The lowest concentration of the test solutions that allowed no visible growth on a BHI agar plate was taken as MBC. The experiment was performed in triplicates and repeated at least three times.

[2] = test system: S. gordonii; assay: as above; type: cell-based, Streptococcus gordonii DL1; details: Streptococcus gordonii
Experimental: as §1, §2

[3] = test system: S. sanguinis; assay: as above; type: cell-based, Streptococcus sanguinis ATCC10556; details: Streptococcus sanguinis, BHI medium
Experimental: as §1, §2

[4] = test system: S. mutans biofilm; assay: Biofilm susceptibility assay (crystal violet); type: cell-based, Streptococcus mutans UA159; details: 24 h; for MBIC: S. mutans biofilm formation, at least 90% inhibition; for MBRC: S. mutans one-day biofilm, at least 90% reduction
Experimental: (§3) Streptococcus mutans UA159, Streptococcus gordonii DL1 and Streptococcus sanguinis ATCC10556 were obtained from the State Key Laboratory of Oral Diseases (Sichuan University, Chengdu, China). All strains were routinely cultured in brain heart infusion broth (BHI; Difco, Sparks, MD) under anaerobic conditions (5% CO2) at 37°C. For biofilm formation, bacteria were cultured in BHI broth supplied with 1% sucrose (designated BHIS). The effect of II-6s on S. mutans, S. gordonii, and S. sanguinis biofilm was examined by the microdilution method described previously. S. mutans, S. gordonii, and S. sanguinis (1 × 10^7 CFU/ml) respectively, were cultured in BHIS broth and II-6s (0.98 to 500 μg/ml) in 96-well microtiter plates for 24 h. A parallel study was also performed with BHIS as a negative control. After incubation, the culture supernatant and agent were removed, and each well was gently washed three times with phosphate-buffered saline (PBS), then fixed the adherent biofilm was fixed with methanol for 15 min, and stained with 0.1% (wt/vol) crystal violet (Sigma) for 5 min. The excess crystal violet stain in each well was rinsed away with PBS until the blank control wells were colorless. Finally, 200 μl of 95% ethanol was added to each well to dissolve the crystal violet attached to the biofilm. The plate was shaken at room temperature for 30 min, and the absorbance at 595 nm was recorded. To examine the effects of II-6s on mature biofilm, bacterial suspensions were inoculated into a 96-well microtiter plate containing BHIS and incubated at 37°C for 24 h. After biofilm developed, the supernatant from each well was decanted and planktonic cells were removed by washing with sterile PBS. Fresh BHI broth containing II-6s (0.98 to 500 μg/ml) was added to the one-day biofilm, and the plate was further incubated for 24 h. The control wells contained BHIS broth without II-6s. Similarly, the biofilm was fixed, stained, washed, and quantified as described above. […] The experiment was performed in triplicates and repeated at least three times.

[5] = test system: S. sanguinis biofilm; assay: Biofilm susceptibility assay (crystal violet); type: cell-based, Streptococcus sanguinis ATCC10556; details: 24 h; for MBIC: S. sanguinis biofilm formation, at least 90% inhibition; for MBRC: S. sanguinis one-day biofilm, at least 90% reduction
Experimental: as §3

[6] = S. mutans, planktonic, BHI medium
[7] = S. gordonii, planktonic, BHI medium

| SMILES | MBC [1, 6] [µg/mL] | MIC ([1]; S. mutans, planktonic, BHI medium, read-out: MIC) [µg/mL] | MBC [2, 7] [µg/mL] | MIC ([2]; S. gordonii, planktonic, BHI medium, read-out: MIC) [µg/mL] | MBC [3] [µg/mL] | MIC [3] [µg/mL] | MBIC [4] [µg/mL] | MBRC [4] [µg/mL] | MBIC [5] [µg/mL] | MBRC [5] [µg/mL] | MIC [1] [µg/mL] | MIC [2] [µg/mL] |
| --- | --- | --- | --- | --- | --- | --- | --- | --- | --- | --- | --- | --- |
| [H]/N=C(\N/C(=N/[H])NCCCCCCNC(=N)NC(=N)Nc1ccc(Cl)cc1)Nc1ccc(Cl)cc1 [CHX, Chlorhexidine digluconate, reference compound] | 7.81 | 1.95 | 7.81 | 3.91 | 3.91 | 0.49 | 0.98 | 62.50 | 1.95 | 3.91 | – | – |
| CC(C)(Cc1ccc2ccccc2c1)NC[C@H](O)CNc1cc(C(F)(F)F)cc(C(F)(F)F)c1 [II-6s, (S)-1-((3,5-bis(trifluoromethyl)phenyl)amino)-3-((2-methyl-1-(naphthalen-2-yl)propan-2-yl)amino)propan-2-ol] | 15.6 (≈ 32.3 µM) | – | 15.6 (≈ 32.3 µM) | – | 7.81 (≈ 16.1 µM) | 1.95 (≈ 4.02 µM) | 3.91 | 62.50 | 3.91 | 3.91 | 3.91 (≈ 8.07 µM) | 3.91 (≈ 8.07 µM) |
